Like-named read-outs stand apart in the source and are kept apart here.
Assays:
TTK = biological target: T1, TTK (Homo sapiens, UniProt P33981); assay: TTK assay: screening of TTK kinase activity suppressing action using p38 MAPK peptide; type: biochemical
T1 sequence (P33981 1-857): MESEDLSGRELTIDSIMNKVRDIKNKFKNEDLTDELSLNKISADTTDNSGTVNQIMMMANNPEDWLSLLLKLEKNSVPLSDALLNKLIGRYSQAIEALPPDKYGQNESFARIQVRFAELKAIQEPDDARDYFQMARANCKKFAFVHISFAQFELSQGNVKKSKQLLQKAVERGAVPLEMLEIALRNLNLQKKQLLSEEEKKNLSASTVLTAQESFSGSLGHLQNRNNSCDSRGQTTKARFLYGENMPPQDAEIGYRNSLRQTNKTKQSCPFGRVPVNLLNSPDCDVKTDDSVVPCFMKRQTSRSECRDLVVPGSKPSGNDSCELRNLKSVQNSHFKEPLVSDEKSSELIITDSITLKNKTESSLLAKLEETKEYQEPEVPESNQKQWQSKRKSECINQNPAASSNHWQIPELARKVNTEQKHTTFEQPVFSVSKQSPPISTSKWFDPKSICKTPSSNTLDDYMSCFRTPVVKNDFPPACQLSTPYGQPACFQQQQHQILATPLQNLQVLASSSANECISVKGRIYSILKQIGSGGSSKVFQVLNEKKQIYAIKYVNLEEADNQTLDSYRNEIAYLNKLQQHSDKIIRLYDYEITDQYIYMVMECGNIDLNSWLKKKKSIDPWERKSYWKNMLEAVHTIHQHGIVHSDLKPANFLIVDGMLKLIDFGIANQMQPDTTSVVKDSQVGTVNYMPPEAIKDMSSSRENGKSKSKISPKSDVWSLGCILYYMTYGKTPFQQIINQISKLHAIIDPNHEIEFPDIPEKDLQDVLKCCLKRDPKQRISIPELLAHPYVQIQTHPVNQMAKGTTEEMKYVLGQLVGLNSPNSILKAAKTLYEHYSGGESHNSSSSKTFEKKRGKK
Procedure: Screening of a compound having a TTK kinase activity suppressing action using p38 MAPK peptide
A test substance 1.0 μL (solvent: 10% (v/v) DMSO), TTK solution 5 μL (composition: 4 μg/ml TTK, 25 mM Tris-HCl, pH7.5, 5 mM β-glycerophosphate, 2 mM DTT, 0.1 mM Na3VO4, 5 mM MgCl2, 0.1% (w/v)BSA) and a substrate solution 5 μL (composition: 60 μM p38 MAPK peptide, 60 μM ATP, 25 mM Tris-HCl, pH7.5, 5 mM β-glycerophosphate, 2 mM DTT, 0.1 mM Na3VO4, 5 mM MgCl2, 0.1% (w/v)BSA) were mixed in the wells of a 384-well microtiter plate (manufactured by Corning Incorporated) made of polypropylene and loaded in a constant temperature and humidity room.
From the resultant mixture, an aliquot of 1.7 μL was taken out and mixed with the reaction terminating solution (60 μl) in the wells of a 384-well microtiter plate (manufactured by Corning Incorporated) made of polypropylene. Thereafter, 40 μL of the mixture was transferred to a 384-well black NeutrAvidin plate (PIERCE), sealed and incubated under room temperature for 30 minutes. […] Similarly, the plate was washed with TTBS (100 μL) three times, 40 μl of a secondary antibody solution (Eu-N1 labeled Anti-mouse IgG (Perkin Elmer, #AD0124)) was added and incubated under room temperature for 30 minutes. After the plate was washed with TTBS (100 μL) five times, 40 μL of an enhance solution (Perkin Elmer) was added and incubated under room temperature for 5 minutes. […] Based on the fluorescence value in the absence of a test substance, the suppression activity of a test substance was measured.

A549 = A549 assay: screening of cancer cell growth inhibiting compound; type: cell-based; conditions: Homo sapiens
Procedure, shortened: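 A549 cells (1×10^4/ml) in D-MEM with 10% FBS were pre-incubated one day at 37 °C, then exposed to compound dilutions for three further days. Viable cell number read by WST-8 (1–4 hours), absorbance 450 nm (reference 620 nm); inhibition calculated relative to untreated wells.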

[1] = p38 MAPK peptide substrate, read-out: TTK IC50
[2] = 72 h, A549 cells, three days, WST-8, read-out: A549 IC50
[3] = A549 cells, values given as IC50 intervals, read-out: A549 IC50

Structure (SMILES) | IC50 (TTK; [1]) [µM] | IC50 (A549; [2]) [µM] | other results
O=C(NC1CC1)c1ccc(-c2cnc3c(NCC4CCS(=O)(=O)CC4)cc(NC4CCCCC4)nn23)cc1 [Example 2-146] | 0.0038 | 0.5 to 1 | 
Nc1cc(C(=O)NC2CC2)ccc1-c1cnc2c(NCC3CCOCC3)cc(NC3CCCC3)nn12 [Example 2-225] |  |  | IC50 (TTK; read-out: TTK IC50): 0.0097 µM; IC50 (A549; [3]): 0.05 to 0.5 µM
O=C(NC1CC1)c1ccc(-c2cnc3c(NCC4CCOCC4)cc(C4=CCNCC4)nn23)cc1 [Example 2-211] |  |  | IC50 (TTK; read-out: TTK IC50): 0.0083 µM; IC50 (A549; [3]): 0.05 to 0.5 µM
CC(Nc1cc(NCC2CCOCC2)c2ncc(-c3ccc(C(=O)NC4CC4)cc3)n2n1)C(C)(C)C (stereo not shown) [Example 2-60] | 0.0046 | ≤ 0.05 | 
Cn1cnc(CNc2cc(NC3CCCCC3)nn3c(-c4ccc(C(=O)NC5CC5)cc4)cnc23)c1 [Example 2-149] | 0.0054 | 0.05 to 0.5 | 
COc1ccc(Oc2cc(NCC3CCOCC3)c3ncc(-c4ccc(C(=O)NC5CC5)cc4)n3n2)cc1 [Example 2-179] |  |  | IC50 (TTK; read-out: TTK IC50): 0.0037 µM; IC50 (A549; [3]): ≤ 0.05 µM
CC1(Oc2cc(NCC3CCOCC3)c3ncc(-c4ccc(C(=O)NC5CC5)cc4)n3n2)CCCCC1 [Example 2-171, N-Cyclopropyl-4-(6-(1-methylcyclohexyloxy)-8-((tetrahydro-2H-pyran-4-yl)methylamino)imidazo[1,2-b]pyridazin-3-yl)benzamide] |  |  | IC50 (TTK; read-out: TTK IC50): 0.0035 µM; IC50 (A549; [3]): 0.05 to 0.5 µM
CC(CO)CNc1cc(NC2CCCCC2)nn2c(-c3ccc(C(=O)NC4CC4)cc3)cnc12 (stereo not shown) [Example 2-168] |  |  | IC50 (TTK; read-out: TTK IC50): 0.0033 µM; IC50 (A549; [3]): 0.05 to 0.5 µM
O=C(NC1CC1)c1ccc(-c2cnc3c(NCC4CCOCC4)cc(OC45CC6CC(CC(C6)C4)C5)nn23)cc1 [Example 2-193] |  |  | IC50 (TTK; read-out: TTK IC50): 0.006 µM; IC50 (A549; [3]): 0.05 to 0.5 µM
N#Cc1ccc(-c2cn3c(-c4ccc(C(=O)NC5CC5)cc4)cnc3c(NCC3CC3)n2)cc1 [Example 1-219] | 0.0095 | 0.05 to 0.5 | 
CC(C)CNc1cc(NC2CCCCC2)nn2c(-c3ccc(C(=O)NC4CC4)cc3)cnc12 [Example 2-2, 4-(6-(Cyclohexylamino)-8-(isobutylamino)imidazo[1,2-b]pyridazin-3-yl)-N-cyclopropylbenzamide] |  |  | IC50 (TTK): 0.0118 µM; IC50 (A549; A549, 72 h, read-out: A549 IC50 (μM)): 0.05 to 0.5 µM
O=C(NC1CC1)c1ccc(-c2cnc3c(NCC4CCOCC4)cc(Oc4cccc(Cl)c4)nn23)cc1 [Example 2-114] | 0.0025 | 0.05 to 0.5 | 
Cc1cc(CNc2cc(NC3CCCCC3)nn3c(-c4ccc(C(=O)NC5CC5)cc4)cnc23)no1 [Example 2-158] | 0.0032 | 0.05 to 0.5 | 
Cn1ccc(CNc2cc(NC3CCCCC3)nn3c(-c4ccc(C(=O)NC5CC5)cc4)cnc23)n1 [Example 2-159] | 0.0261 | 0.05 to 0.5 | 
O=C(NC1CC1)c1ccc(-c2cnc3c(NCC45CCN(CC4)CC5)cc(NC4CCCCC4)nn23)cc1 [Example 2-153] | 0.0075 | 0.05 to 0.5 | 
Cn1cc(CNc2cc(NC3CCCCC3)nn3c(-c4ccc(C(=O)NC5CC5)cc4)cnc23)cn1 [Example 2-150] | 0.0038 | 0.05 to 0.5 | 
COc1cc(C#N)ccc1-c1cc(NCC2CCOCC2)c2ncc(-c3ccc(C(=O)NC4CC4)cc3)n2n1 [Example 2-205] |  |  | IC50 (TTK; read-out: TTK IC50): 0.0045 µM; IC50 (A549; [3]): ≤ 0.05 µM
CC(C)CNc1cc(NCC2CCOCC2)c2ncc(-c3ccc(C(=O)NC4CC4)cc3)n2n1 [Example 2-22] | 0.0062 | 0.05 to 0.5 | 
O=C(NC1CC1)c1ccc(-c2cnc3c(NCC4CCCO4)cc(NC4CCCCC4)nn23)cc1 (stereo not shown) [Example 2-167] |  |  | IC50 (TTK; read-out: TTK IC50): 0.0039 µM; IC50 (A549; [3]): 0.05 to 0.5 µM
COCCNc1cc(NCC2CCOCC2)c2ncc(-c3ccc(C(=O)NC4CC4)cc3)n2n1 [Example 2-18] | 0.0184 | 0.05 to 0.5 | 
COCCOc1cc(NCC2CCOCC2)c2ncc(-c3ccc(C(=O)NC4CC4)cc3)n2n1 [Example 2-175] |  |  | IC50 (TTK; read-out: TTK IC50): 0.0114 µM; IC50 (A549; [3]): 0.05 to 0.5 µM

Structure (SMILES) | IC50 (TTK; [1]) [µM] | IC50 (A549; [2]) [µM] | other results
N#Cc1ccc(-c2cn3c(-c4ccc(C(=O)NC5CC5)cc4)cnc3c(NCCC3CCOCC3)n2)cc1 [Example 1-221] | 0.0095 | 0.05 to 0.5 | 
Cc1nc(C)c(-c2cc(NCC3CCOCC3)c3ncc(-c4ccc(C(=O)NC5CC5)cc4)n3n2)s1 [Example 2-9] | 0.0197 | 0.5 to 1 | 
COc1ccc(Oc2cc(NCC3CCOCC3)c3ncc(-c4ccc(C(=O)NC5CC5)cc4)n3n2)c(F)c1 [Example 2-112] | 0.0027 | ≤ 0.05 | 
O=C(NC1CC1)c1ccc(-c2cnc3c(NCc4cncs4)cc(NC4CCCCC4)nn23)cc1 [Example 2-147] | 0.0029 | 0.05 to 0.5 | 
CC(C)(O)CNc1nc(-c2ccc(C#N)cc2)cn2c(-c3ccc(C(=O)NC4CC4)cc3)cnc12 [Example 1-235] | 0.0128 | 0.05 to 0.5 | 
N#Cc1ccc(-c2cn3c(-c4ccc(C(=O)NC5CC5)cc4)cnc3c(NCCc3ccc(O)cc3)n2)cc1 [Example 1-228] | 0.0205 | 0.5 to 1 | 
CN1CCN(c2cc(NCC3CCOCC3)c3ncc(-c4ccc(C(=O)NC5CC5)cc4)n3n2)CC1 [Example 2-15] | 0.0257 | 0.05 to 0.5 | 
N#Cc1ccc(-c2cn3c(-c4ccc(C(=O)NC5CC5)cc4)cnc3c(NCc3nccs3)n2)cc1 [Example 1-220] | 0.0196 | 0.05 to 0.5 | 
COCCN(c1cc(NCC2CCOCC2)c2ncc(-c3ccc(C(=O)NC4CC4)cc3)n2n1)C1CCCC1 [Example 2-29] | 0.0062 | 0.05 to 0.5 | 
O=C(NC1CC1)c1ccc(-c2cnc3c(NCc4ccccn4)cc(NC4CCCCC4)nn23)cc1 [Example 2-154] | 0.005 | 0.05 to 0.5 | 
O=C(NC1CC1)c1ccc(-c2cnc3c(NCC4CCOCC4)cc(NCC(F)(F)F)nn23)cc1 [Example 2-30] | 0.0119 | 0.05 to 0.5 | 
CC(Nc1cc(NCC2CCOCC2)c2ncc(-c3ccc(C(=O)NC4CC4)cc3)n2n1)c1cccs1 (stereo not shown) [Example 2-84] | 0.0075 | 0.05 to 0.5 | 
N#Cc1ccc(-c2cn3c(-c4ccc(C(=O)NC5CC5)cc4)cnc3c(NCC(F)F)n2)cc1 [Example 1-236] | 0.0083 | 0.05 to 0.5 | 
O=C(NC1CC1)c1ccc(-c2cnc3c(NCc4ccco4)cc(NC4CCCCC4)nn23)cc1 [Example 2-152] | 0.0036 | 0.05 to 0.5 | 
O=C(NC1CC1)c1ccc(-c2cnc3c(NCc4cccs4)cc(NC4CCCCC4)nn23)cc1 [Example 2-151] | 0.0031 | 0.05 to 0.5 | 
N#Cc1ccc(-c2cn3c(-c4ccc(C(=O)NC5CC5)cc4)cnc3c(NCCS(=O)(=O)N3CCCC3)n2)cc1 [Example 1-224] | 0.0183 | 0.5 to 1 | 
O=C(NC1CC1)c1ccc(-c2cnc3c(NCC4CCOCC4)cc(NC45CC6CC(CC(C6)C4)C5)nn23)cc1 [Example 2-64] | 0.0019 | ≤ 0.05 | 
O=C(NC1CC1)c1ccc(-c2cnc3c(NCC4CCOCC4)cc(OC4CCCCC4O)nn23)cc1 (stereo not shown) [Example 2-188] |  |  | IC50 (TTK; read-out: TTK IC50): 0.0053 µM; IC50 (A549; [3]): 0.05 to 0.5 µM
CCC(C)Nc1cc(NCC2CCOCC2)c2ncc(-c3ccc(C(=O)NC4CC4)cc3)n2n1 (stereo not shown) [Example 2-87, 4-(6-(sec-Butylamino)-8-((tetrahydro-2H-pyran-4-yl)methylamino)imidazo[1,2-b]pyridazin-3-yl)-N-cyclopropylbenzamide] | 0.0062 | 0.05 to 0.5 | 
N#Cc1cccc(-c2cc(NCC3CCOCC3)c3ncc(-c4ccc(C(=O)NC5CC5)cc4)n3n2)c1 [Example 2-203] |  |  | IC50 (TTK; read-out: TTK IC50): 0.0047 µM; IC50 (A549; [3]): 0.05 to 0.5 µM
